Laboratory results from the supplement of paper PMC10307832.

Columns and labels:
Test in all cases: relative viability (nuclei count vs DMSO), 5 days (fraction); higher = more cells survive
NCI-H322M = test system: NCI-H322M
In short: (§1)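 Relative viability was taken as the ratio of nuclei in treated wells to nuclei in vehicle wells. Lung cancer cell lines in 1536-well plates received compounds by pin tool one day after seeding, either one drug alone or a fixed anchor-drug dose plus five library-drug doses (not always all listed) in √10 steps. Nuclei were counted on 4× images after 5 days of treatment, and values are medians of duplicate plates.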

NCI-H1651 = test system: NCI-H1651
In short: as §1

LXF-289 = test system: LXF-289
In short: as §1

PC-3 [JPC-3] = test system: PC-3 [JPC-3]
In short: as §1

ChaGo-K-1 = test system: ChaGo-K-1
In short: as §1

NCI-H661 = test system: NCI-H661
In short: as §1

SK-MES-1 = test system: SK-MES-1
In short: as §1

HCC-78 = test system: HCC-78
In short: as §1

NCI-H596 = test system: NCI-H596
In short: as §1

NCI-H2342 = test system: NCI-H2342
In short: as §1

UMC-11 = test system: UMC-11
In short: as §1

HCC-15 = test system: HCC-15
In short: as §1

LU99A = test system: LU99A
In short: as §1

LC-2-ad = test system: LC-2-ad
In short: as §1

NCI-H838 = test system: NCI-H838
In short: as §1

BEN = test system: BEN
In short: as §1

NCI-H650 = test system: NCI-H650
In short: as §1

NCI-H2087 = test system: NCI-H2087
In short: as §1

NCI-H358 = test system: NCI-H358
In short: as §1

NCI-H1944 = test system: NCI-H1944
In short: as §1

LK-2 = test system: LK-2
In short: as §1

NCI-H1666 = test system: NCI-H1666
In short: as §1

LCLC-97TM1 = test system: LCLC-97TM1
In short: as §1

NC(=O)Nc1cc(-c2cccc(F)c2)sc1C(=O)N[C@H]1CCCNC1 [AZD7762] + Nc1ncn([C@H]2C[C@H](O)[C@@H](CO)O2)c(=O)n1 [Decitabine] (partner 2 µM)
relative viability (NCI-H322M; first compound 0.01 µM): 0.813
relative viability (NCI-H322M; first compound 0.03162 µM): 0.789
relative viability (NCI-H322M; first compound 0.1 µM): 0.801
relative viability (NCI-H322M; first compound 0.3162 µM): 0.783
relative viability (NCI-H322M; first compound 1 µM): 0.457
relative viability (NCI-H1651; first compound 0.01 µM): 0.612
relative viability (NCI-H1651; first compound 0.03162 µM): 0.887
relative viability (NCI-H1651; first compound 0.1 µM): 0.698
relative viability (NCI-H1651; first compound 0.3162 µM): 0.692
relative viability (NCI-H1651; first compound 1 µM): 0.315
relative viability (LXF-289; first compound 0.01 µM): 0.322
relative viability (LXF-289; first compound 0.03162 µM): 0.476
relative viability (LXF-289; first compound 0.1 µM): 0.486
relative viability (LXF-289; first compound 0.3162 µM): 0.619
relative viability (LXF-289; first compound 1 µM): 0.55
relative viability (PC-3 [JPC-3]; first compound 0.01 µM): 0.892
relative viability (PC-3 [JPC-3]; first compound 0.03162 µM): 0.869
relative viability (PC-3 [JPC-3]; first compound 0.1 µM): 0.949
relative viability (PC-3 [JPC-3]; first compound 0.3162 µM): 0.848
relative viability (PC-3 [JPC-3]; first compound 1 µM): 0.592
relative viability (ChaGo-K-1; first compound 0.01 µM): 0.52
relative viability (ChaGo-K-1; first compound 0.03162 µM): 0.553
relative viability (ChaGo-K-1; first compound 0.1 µM): 0.565
relative viability (ChaGo-K-1; first compound 0.3162 µM): 0.555
relative viability (ChaGo-K-1; first compound 1 µM): 0.597
relative viability (NCI-H661; first compound 0.01 µM): 0.689
relative viability (NCI-H661; first compound 0.03162 µM): 0.62
relative viability (NCI-H661; first compound 0.1 µM): 0.642
relative viability (NCI-H661; first compound 0.3162 µM): 0.609
relative viability (NCI-H661; first compound 1 µM): 0.356
relative viability (SK-MES-1; first compound 0.01 µM): 0.347
relative viability (SK-MES-1; first compound 0.03162 µM): 0.394
relative viability (SK-MES-1; first compound 0.1 µM): 0.342
relative viability (SK-MES-1; first compound 0.3162 µM): 0.289
relative viability (SK-MES-1; first compound 1 µM): 0.163
relative viability (HCC-78; first compound 0.01 µM): 0.707
relative viability (HCC-78; first compound 0.03162 µM): 0.901
relative viability (HCC-78; first compound 0.1 µM): 0.824
relative viability (HCC-78; first compound 0.3162 µM): 0.904
relative viability (HCC-78; first compound 1 µM): 0.622
relative viability (NCI-H596; first compound 0.01 µM): 0.978
relative viability (NCI-H596; first compound 0.03162 µM): 1.02
relative viability (NCI-H596; first compound 0.1 µM): 1.01
relative viability (NCI-H596; first compound 0.3162 µM): 1.1
relative viability (NCI-H596; first compound 1 µM): 1.03
relative viability (NCI-H2342; first compound 0.01 µM): 0.68
relative viability (NCI-H2342; first compound 0.03162 µM): 0.731
relative viability (NCI-H2342; first compound 0.1 µM): 0.805
relative viability (NCI-H2342; first compound 0.3162 µM): 0.821
relative viability (NCI-H2342; first compound 1 µM): 0.854
relative viability (UMC-11; first compound 0.01 µM): 0.728
relative viability (UMC-11; first compound 0.03162 µM): 0.591
relative viability (UMC-11; first compound 0.1 µM): 0.598
relative viability (UMC-11; first compound 0.3162 µM): 0.479
relative viability (UMC-11; first compound 1 µM): 0.305
relative viability (HCC-15; first compound 0.01 µM): 0.565
relative viability (HCC-15; first compound 0.03162 µM): 0.587
relative viability (HCC-15; first compound 0.1 µM): 0.622
relative viability (HCC-15; first compound 0.3162 µM): 0.553
relative viability (HCC-15; first compound 1 µM): 0.589
relative viability (LU99A; first compound 0.01 µM): 0.863
relative viability (LU99A; first compound 0.03162 µM): 0.911
relative viability (LU99A; first compound 0.1 µM): 0.941
relative viability (LU99A; first compound 0.3162 µM): 0.958
relative viability (LU99A; first compound 1 µM): 0.635
relative viability (LC-2-ad; first compound 0.01 µM): 0.853
relative viability (LC-2-ad; first compound 0.03162 µM): 0.901
relative viability (LC-2-ad; first compound 0.1 µM): 0.796
relative viability (LC-2-ad; first compound 0.3162 µM): 0.649
relative viability (LC-2-ad; first compound 1 µM): 0.682
relative viability (NCI-H838; first compound 0.01 µM): 0.661
relative viability (NCI-H838; first compound 0.03162 µM): 0.568
relative viability (NCI-H838; first compound 0.1 µM): 0.531
relative viability (NCI-H838; first compound 0.3162 µM): 0.454
relative viability (NCI-H838; first compound 1 µM): 0.283
relative viability (BEN; first compound 0.01 µM): 0.801
relative viability (BEN; first compound 0.03162 µM): 0.984
relative viability (BEN; first compound 0.1 µM): 0.874
relative viability (BEN; first compound 0.3162 µM): 0.872
relative viability (BEN; first compound 1 µM): 0.673
relative viability (NCI-H650; first compound 0.01 µM): 0.359
relative viability (NCI-H650; first compound 0.03162 µM): 0.404
relative viability (NCI-H650; first compound 0.1 µM): 0.437
relative viability (NCI-H650; first compound 0.3162 µM): 0.493
relative viability (NCI-H650; first compound 1 µM): 0.493
relative viability (NCI-H2087; first compound 0.01 µM): 0.313
relative viability (NCI-H2087; first compound 0.03162 µM): 0.378
relative viability (NCI-H2087; first compound 0.1 µM): 0.411
relative viability (NCI-H2087; first compound 0.3162 µM): 0.475
relative viability (NCI-H2087; first compound 1 µM): 0.332
relative viability (NCI-H358; first compound 0.01 µM): 0.229
relative viability (NCI-H358; first compound 0.03162 µM): 0.311
relative viability (NCI-H358; first compound 0.1 µM): 0.38
relative viability (NCI-H358; first compound 0.3162 µM): 0.343
relative viability (NCI-H358; first compound 1 µM): 0.224
relative viability (NCI-H1944; first compound 0.01 µM): 0.46
relative viability (NCI-H1944; first compound 0.03162 µM): 0.494
relative viability (NCI-H1944; first compound 0.1 µM): 0.442
relative viability (NCI-H1944; first compound 0.3162 µM): 0.497
relative viability (NCI-H1944; first compound 1 µM): 0.44
relative viability (LK-2; first compound 0.01 µM): 0.476
relative viability (LK-2; first compound 0.03162 µM): 0.479
relative viability (LK-2; first compound 0.1 µM): 0.346
relative viability (LK-2; first compound 0.3162 µM): 0.346
relative viability (LK-2; first compound 1 µM): 0.25
relative viability (NCI-H1666; first compound 0.01 µM): 0.731
relative viability (NCI-H1666; first compound 0.03162 µM): 0.907
relative viability (NCI-H1666; first compound 0.1 µM): 0.924
relative viability (NCI-H1666; first compound 0.3162 µM): 0.824
relative viability (NCI-H1666; first compound 1 µM): 0.71
relative viability (LCLC-97TM1; first compound 0.01 µM): 0.259
relative viability (LCLC-97TM1; first compound 0.03162 µM): 0.265
relative viability (LCLC-97TM1; first compound 0.1 µM): 0.273
relative viability (LCLC-97TM1; first compound 0.3162 µM): 0.303
relative viability (LCLC-97TM1; first compound 1 µM): 0.346
